This note sets out measurements from ChEMBL document CHEMBL1151119, “Isolation and structure of the cytostatic lignan glycoside phyllanthostatin A” (1988).

The test system of this experiment is P388. The experiment in a line: Cytotoxicity against mouse P388 cells. In kind it is functional. Particulars: read-out: ED50 (the source's name).

The structures appear in SMILES notation. ≈ marks a conversion by molar mass, not a printed value.

Take `COc1cc2cc(COC(C)=O)c(C(=O)O[C@@H]3O[C@H](CO)[C@@H](O)[C@H](O)[C@H]3O)c(-c3ccc4c(c3)OCO4)c2cc1OC` [PHYLLANTHOSTATIN A]: the EC50 worked out at 4 µg/mL (≈ 6.82 µM).
